According to patent publication US4203986A, “M-Trifluoro-methylphenyl-piperazine” (Metabio-Joullie, priority 1977, dated 1980):
Where two headings read alike, the source gives them in different places.

How the values were obtained:
[1] = tested on: coughing induced by aqueous citric acid aerosol; experiment: Antitussive action in the guinea pig (citric acid aerosol); assay type: in vivo; conditions: for inhibition in vivo at 22 mg/kg: 22 mg/kg p.o.; for antitussive activity (in words): oral
Source text: The technique used is that of SIECKMANN (W.) (in "Notions techniques de Pharmacologie generale" by Michel COLOT, page 75, Masson, Edit, 1972).
The guinea pigs .female. of mean weight 400 g, unanaesthesised, are subjected to the tussigenic effect of aerosols of a 7.5% aqueous citric acid solution. The animals are placed one by one in a cylindrical chamber having at its two extremities two canals, one serving as entrance for the aerosol and the other as its exit.
On the exit tube there is a lateral connection to a MERCURY gas pressure differential gauge joined to an RACIA counter. An adjustable screw clamp placed on the exit tube downstream of the lateral canal permits regulation of the sensitivity of the system such that the normal respiration of the animal only registers very weakly and that displacement of air in the chamber provoked by coughing attack is recorded clearly in the form of vertical traces.
Each guinea pig is first submitted to a control test for 5 minutes. One hour later it receives the test compound. It is replaced in the chamber for 5 minutes, 1 hour after oral administration of the compound.
The number of coughing attacks before and after administration is counted and the percentage inhibition is calculated.

[2] = tested on: coughing by stimulation of the superior larynx nerve; experiment: Antitussive action in the cat (stimulation of the superior larynx nerve); assay type: in vivo; conditions: for effect on coughing in cats (in words): i.v.
Procedure: The cats all thriving, male or female of weight between 1.5 and 2.5 kg (test on 10 cats) are anaesthesised by nembutal at a dose of 30 mg/kg interperitoneally.
A cannula having three branches is placed in the trachea. Two of the branches are connected to a device for registering intratracheal pressure (MERCURY gas pressure gauge connected to an RACIA polygraph) The third branch allows elimination of part of the respiratory volume.
A cannula is placed in the femoral vein for administration of the test substances.
The stimulation parameters are as follows: frequency: 5 cycles per sec, amplitude: 5 millisec, voltage: 4 to 6 volts, duration: 15 to 45 sec. (according to the sensitivity of the animal).
There are carried a minimum of 3 stimulations spaced by 5 minutes and provoking coughing attacks of the same severity. The compound is then administered intravenously. The stimulation is then carried out every 5 minutes. If the compound reduces or suppresses the coughing the stimulation is continued until the reappearance of coughing to approximately the same degree as the initial coughing.
The results are expressed as a percentage reduction in the number of coughs.

Acute toxicity in Mice = assay type: in vivo, mice (SWISS, EOPS, NMRI/Han, female); conditions: for LD50 at 360 h / MTD at 360 h: mouse, in vivo; for LD50 at 360 h / LD 50: method of KARBER and BEHRENS; for MTD at 360 h: read-out: LD 0 (maximum dose tolerated); for LD 0 (maximum dose tolerated) / LD 50: 21600 min
Procedure: The compounds are administered in increasing doses (in arithmetic progression) to groups of five .female. SWISS, EOPS, NMRI/Han mice of the EVIC CEBA strain and having a mean weight of 22 g.
For intravenous administration the compounds are dissolved in distilled water, for oral administration they are suspended in 10% gum arabic solution (volume administered: 0.5 ml/22 g body weight).
The LD 50's are calculated according to the method of KARBER and BEHRENS (B.) (Arch. Exp. Path. Pharmakol. 1935, 177, 379-388).
For each administration method, there is indicated:
LD 0 or maximum dose tolerated.
LD 100 or minimum lethal dose.
The number of animals surviving in the different groups is definitively verified 15 days after administrating the compounds.

[3] = Test on the cataleptic action in rats; assay type: in vivo; conditions: p.o., every 30 minutes for 6 hours
Procedure: (7) Test on the cataleptic action in rats (groups of 5 animals)
After administration p.o. of the test compounds, the degree of catalepsy is noted every 30 minutes for 6 hours by the test of crossing of the homolateral feet according to BOISSIER (J.R.) and SIMON (P.) (Therapy, 1963, 18, 1257-1277) and using the following notation:
0=animal which is not cataleptic
132 animal conserving position on one side only
2=animal conserving position on both sides

[4] = tested on: toxicity of amphetamine compounds; experiment: Action on the toxicity of Amphetamine compounds in the mice; assay type: in vivo; conditions: per os
Procedure: (6) Action on the toxicity of Amphetamine compounds in the mice. (groups of 10 animals)
30 minutes after administration of the test compounds, amphetamine bitartrate is injected interperitioeally at a dose of 10 mg/kg (dose giving substantially 100% mortality) to mice in groups of 10 in boxes 12×18×13 cm. The number of animals surviving 24 hours after the amphetamine administration is noted.

[5] = Cavia porcellus, po, 1 h, read-out: Percentages of inhibition of coughing

| SMILES | LD50 at 360 h (Acute toxicity in Mice; po, oral administration) [mg/kg] | MTD at 360 h (Acute toxicity in Mice; po, oral administration) [mg/kg] | LD 100 (minimum lethal dose) (Acute toxicity in Mice; oral administration) [mg/kg] | LD 100 (minimum lethal dose) (Acute toxicity in Mice; intravenous administration) [mg/kg] | LD50 at 360 h (Acute toxicity in Mice; iv, intravenous administration) [mg/kg] | MTD at 360 h (Acute toxicity in Mice; iv, intravenous administration) [mg/kg] | other results |
| --- | --- | --- | --- | --- | --- | --- | --- |
| COc1ccc2c3c1O[C@H]1[C@@H](O)C=C[C@H]4[C@@H](C2)N(C)CC[C@@]341 [Codeine, reference compound] | – | – | – | – | – | – | inhibition in vivo at 35 mg/kg ([1]; Cavia porcellus, po, 1 h, 35 mg/kg p.o., read-out: Percentages of inhibition of coughing): 64%; inhibition in vivo at 70 mg/kg ([1]; Cavia porcellus, po, 1 h, 70 mg/kg p.o., read-out: Percentages of inhibition of coughing): 71%; % maximum reduction in the number of coughs ([2]; 3.5 mg/kg i.v.): 100% |
| OCC(O)CN1CCN(c2ccc(F)c(C(F)(F)F)c2)CC1 (stereo not drawn) [LJ 1121, 3-[4-(3-Trifluoromethyl-4-fluorophenyl)-piperazino]propane-1,2-diol] | 925 | 500 | 1250 | – | – | – | – |
| OCC(O)CN1CCN(c2cccc(C(F)(F)F)c2)CC1 (stereo not drawn) [LJ 1142, 3-[4-(m-Trifluoromethylphenyl)-piperazino]-propane-1,2-diol] | 1120 | 750 | 1500 | 300 | 252 | 225 | – |
| OC1CCCCC1N1CCN(c2cccc(C(F)(F)F)c2)CC1 (stereo not drawn) [LJ 1143, 2-[4-(m-Trifluoromethylphenyl)-piperazino]-cyclohexanol] | 625 | 250 | 1000 | 81 | 69 | 56 | – |
| OC(CN1CCN(c2cccc(C(F)(F)F)c2)CC1)CN1CCN(c2cccc(C(F)(F)F)c2)CC1 [LJ 1145, 1,3-bis[4-(m-Trifluoromethylphenyl)-piperazino]-propan-2-ol] | – | – | 1000 | – | – | – | LD 0 (maximum dose tolerated) (Acute toxicity in Mice; oral administration): 200 mg/kg; LD 50 (Acute toxicity in Mice; oral administration): 580 mg/kg; inhibition in vivo at 58 mg/kg ([1]; Cavia porcellus, po, 1 h, 58 mg/kg p.o., read-out: Percentages of inhibition of coughing): 58% |
| OC(CN1CCN(c2cccc(C(F)(F)F)c2)CC1)CN1CCN(c2cccc(C(F)(F)F)c2)CC1 [LJ 1152, 1,3-bis[4-(m-Trifluoromethylphenyl)-piperazino]-propan-2-ol] | – | – | 375 | 50 | 36 | 25 | LD 0 (maximum dose tolerated) (Acute toxicity in Mice; oral administration): 125 mg/kg; LD 50 (Acute toxicity in Mice; oral administration): 225 mg/kg; inhibition in vivo at 22 mg/kg [1, 5]: 64%; inhibition in vivo at 72 mg/kg ([1]; Cavia porcellus, po, 1 h, 72 mg/kg p.o., read-out: Percentages of inhibition of coughing): 75%; antitussive activity (in words) [1]: also active if not more active than codeine; % maximum reduction in the number of coughs ([2]; 3.6 mg/kg i.v.): 76%; % maximum reduction in the number of coughs ([2]; 7.2 mg/kg i.v.): 100%; effect on coughing in cats (in words) [2]: comparable with those of codeine |
| OC(CN1CCN(c2cccc(C(F)(F)F)c2)CC1)CN1CCN(c2cccc(C(F)(F)F)c2)CC1 [LJ 1154, 1,3-bis[4-(m-Trifluoromethylphenyl)-piperazino]-propan-2-ol] | – | – | 200 | 44 | – | – | LD 0 (maximum dose tolerated) (Acute toxicity in Mice; intravenous administration): 25 mg/kg; LD 50 (Acute toxicity in Mice; intravenous administration): 37.5 mg/kg; LD 0 (maximum dose tolerated) (Acute toxicity in Mice; oral administration): 50 mg/kg; LD 50 (Acute toxicity in Mice; oral administration): 135 mg/kg; inhibition in vivo at 6.75 mg/kg ([1]; Cavia porcellus, po, 1 h, 6.75 mg/kg p.o., read-out: Percentages of inhibition of coughing): 66%; inhibition in vivo at 13.5 mg/kg ([1]; Cavia porcellus, po, 1 h, 13.5 mg/kg p.o., read-out: Percentages of inhibition of coughing): 78%; antitussive activity (in words) [1]: also active if not more active than codeine; % maximum reduction in the number of coughs ([2]; 4 mg/kg i.v.): 80%; % maximum reduction in the number of coughs ([2]; 8 mg/kg i.v.): 100%; effect on coughing in cats (in words) [2]: comparable with those of codeine |
| O=C1CCCC1CN1CCN(c2cccc(C(F)(F)F)c2)CC1 (stereo not drawn) [LJ 1160] | 975 | 500 | 1500 | 87.5 | 74 | 62.5 | inhibition in vivo at 100 mg/kg ([1]; Cavia porcellus, po, 1 h, 100 mg/kg p.o., read-out: Percentages of inhibition of coughing): 50%; cataleptic effect [3]: absence of cataleptic effect; toxicity of amphetamine compounds (in words) [4]: reduce the toxicity of amphetamine compounds |
| OC1CCCCC1CN1CCN(c2cccc(C(F)(F)F)c2)CC1 (stereo not drawn) [LJ 1161, 2-[4-(m-Trifluoromethylphenyl)-piperazino]-methyl-cyclohexanol] | 1500 | 750 | 2000 | 87.5 | 66 | 50 | inhibition in vivo at 150 mg/kg ([1]; Cavia porcellus, po, 1 h, 150 mg/kg p.o., read-out: Percentages of inhibition of coughing): 75%; cataleptic effect [3]: absence of cataleptic effect |
| O=C(CN1CCN(c2cccc(C(F)(F)F)c2)CC1)CN1CCN(c2cccc(C(F)(F)F)c2)CC1 [LJ 1163] | 180 | 125 | 250 | 22.5 | 18 | 12.5 | inhibition in vivo at 9 mg/kg ([1]; Cavia porcellus, po, 1 h, 9 mg/kg p.o., read-out: Percentages of inhibition of coughing): 64%; inhibition in vivo at 18 mg/kg ([1]; Cavia porcellus, po, 1 h, 18 mg/kg p.o., read-out: Percentages of inhibition of coughing): 78%; antitussive activity (in words) [1]: also active if not more active than codeine; % maximum reduction in the number of coughs ([2]; 1.8 mg/kg i.v.): 50%; Delay in the disappearance of protective effect ([2]; 1.8 mg/kg i.v.): Fleeting; % maximum reduction in the number of coughs ([2]; 3.6 mg/kg i.v.): 62% |
| O=C1CCCCCC1CN1CCN(c2cccc(C(F)(F)F)c2)CC1 (stereo not drawn) [LJ 1176, 2-[4-(m-Trifluoromethylphenyl)-piperazino]-methyl-cycloheptanone] | 1950 | 1500 | 2500 | – | – | – | inhibition in vivo at 200 mg/kg ([1]; Cavia porcellus, po, 1 h, 200 mg/kg p.o., read-out: Percentages of inhibition of coughing): 78%; cataleptic effect [3]: absence of cataleptic effect |
| OCCN1CCN(c2ccc(F)c(C(F)(F)F)c2)CC1 [LJ 1195, 2-[4-(3-Trifluoromethyl-4-fluorophenyl)-piperazino]-ethanol] | 844 | 300 | 1250 | – | – | – | – |
| O=C1CCCCC1CN1CCN(c2ccc(F)c(C(F)(F)F)c2)CC1 (stereo not drawn) [LJ 1196, 2-[4-(3-Trifluoromethyl-4-fluorophenyl)-piperazino]-methyl-cyclohexanone] | 937 | 625 | 1250 | – | – | – | – |
| OC(CN1CCN(c2ccc(F)c(C(F)(F)F)c2)CC1)CN1CCN(c2ccc(F)c(C(F)(F)F)c2)CC1 [LJ 1198, 1,3-bis[4-(3-Trifluoromethyl-4-fluorophenyl)-piperazino)-propan-2-ol] | 225 | 50 | 400 | – | – | – | inhibition in vivo at 22 mg/kg [1, 5]: 50% |
